Emax and EC50 data for three compounds are collected here from patent US11485742B2, “2-azaspiro[3.4]octane derivatives as M4 agonists” (NOVARTIS AG, priority 2019, dated 2022).

Structures are written as SMILES. pEC50: −log10 of the molar value.

Assay [1] has as its target T1, human cloned CHRM3 receptor (Homo sapiens, UniProt P20309).
T1 construct: expressed in transfected cells; host or cells: CHO-K1 (M3_CHO)
As to the kind of experiment: CHRM3 Ca++ Flux Assay (M3_CHO cells, agonist mode). In kind it is cell-based. Conditions: for Emax: Percent Activity (PA) measured to EC100 of Carbachol, read-out: M3 FDSS PA %; for pEC50: agonist mode, geometric mean if tested more than once, read-out: M3 FDSS EC50. The method, boiled down: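 Agonist-mode calcium mobilisation: compounds, 11 concentrations in triplicate, applied to stable M3_CHO or M5_CHO cells loaded with Ca++ dye, fluorescence followed 3 min. Efficacy expressed against carbachol EC100; EC curves by four-parameter nonlinear regression, geometric mean across independent runs.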

Assay [2] addresses T2, human cloned CHRM4 receptor (Homo sapiens, UniProt P08173).
T2 construct: expressed in transfected cells; host or cells: CHO-K1 (M4_CHO)
T2 sequence (P08173 1-479): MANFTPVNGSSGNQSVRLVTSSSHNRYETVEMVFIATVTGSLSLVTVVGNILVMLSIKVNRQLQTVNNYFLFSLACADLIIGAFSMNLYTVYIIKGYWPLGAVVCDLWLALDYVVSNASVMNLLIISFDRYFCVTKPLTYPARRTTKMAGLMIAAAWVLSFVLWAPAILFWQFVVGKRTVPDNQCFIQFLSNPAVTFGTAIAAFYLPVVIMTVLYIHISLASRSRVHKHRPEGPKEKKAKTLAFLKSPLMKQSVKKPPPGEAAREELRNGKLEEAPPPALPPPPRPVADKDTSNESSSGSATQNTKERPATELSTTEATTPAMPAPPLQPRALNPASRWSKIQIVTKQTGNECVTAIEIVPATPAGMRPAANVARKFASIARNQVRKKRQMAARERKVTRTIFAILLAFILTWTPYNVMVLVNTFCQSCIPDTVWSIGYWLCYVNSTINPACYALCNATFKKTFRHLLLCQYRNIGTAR
As to the kind of experiment: CHRM4 Ca++ Flux Assay (M4_CHO cells, agonist mode). In kind it is cell-based. The following applies: for Emax: Percent Activity (PA), read-out: M4 FDSS PA %; for pEC50: geometric mean if tested more than once, read-out: M4 FDSS EC50. The method, boiled down:
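Agonist-mode calcium flux in an M4-expressing CHO-K1 line: compounds were dosed at 11 points in triplicate and fluorescence was tracked for 3 min. Cells were preloaded with Ca++ dye and kept in −Ca/−Mg HBSS with 20 μM ATP for 60 min. Efficacy is scaled to carbachol EC100; EC50s come from four-parameter regression, geometric mean across runs.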

T1 sequence (P20309 whole entry): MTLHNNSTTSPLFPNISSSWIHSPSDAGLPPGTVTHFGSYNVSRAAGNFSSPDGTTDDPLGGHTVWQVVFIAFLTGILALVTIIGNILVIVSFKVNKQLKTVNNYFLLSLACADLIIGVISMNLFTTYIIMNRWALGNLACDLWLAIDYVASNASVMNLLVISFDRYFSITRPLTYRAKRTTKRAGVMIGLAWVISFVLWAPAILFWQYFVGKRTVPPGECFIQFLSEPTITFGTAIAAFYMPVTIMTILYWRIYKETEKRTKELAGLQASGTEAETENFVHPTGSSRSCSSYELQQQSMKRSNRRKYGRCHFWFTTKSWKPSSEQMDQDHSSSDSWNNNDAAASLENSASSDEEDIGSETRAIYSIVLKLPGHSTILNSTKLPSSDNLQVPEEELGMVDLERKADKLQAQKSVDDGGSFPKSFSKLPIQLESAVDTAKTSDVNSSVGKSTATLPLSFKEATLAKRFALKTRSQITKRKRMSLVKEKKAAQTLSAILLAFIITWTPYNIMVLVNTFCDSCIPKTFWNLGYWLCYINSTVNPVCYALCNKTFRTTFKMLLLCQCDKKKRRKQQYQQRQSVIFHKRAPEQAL

Turning to `Fc1cc(O[C@@H]2CCOC2)c(C2CCN([C@@H]3COC4(C3)CN(c3nnco3)C4)CC2)cc1F` [Example 1R, (S)-7-(4-(4,5-difluoro-2-(((R)-tetrahydrofuran-3-yl)oxy)phenyl)piperidin-1-yl)-2-(1,3,4-oxadiazol-2-yl)-5-oxa-2-azaspiro[3.4]octane], in assay [1], the Emax was found to be 0% and the pEC50 (commonly the EC50 on a negative log10 scale, so that one unit is a factor of ten) is under 4.60. Besides, in assay [2], the Emax is 77% and the negative logarithm of the EC50 (pEC50) was 7.39.

Take `Fc1ccc(OC[C@H]2CCOC2)c(C2CCN([C@@H]3COC4(C3)CN(c3nnco3)C4)CC2)c1` [Example 1I, (S)-7-(4-(5-fluoro-2-(((S)-tetrahydrofuran-3-yl)methoxy)phenyl)piperidin-1-yl)-2-(1,3,4-oxadiazol-2-yl)-5-oxa-2-azaspiro[3.4]octane]: in assay [1], the Emax was found to be 0% and the negative-log EC50 (pEC50) was under 4.60. In assay [2], the Emax is 69% and the negative logarithm of the EC50 (pEC50) is 7.46.

Take `Fc1ccc(OC2COC2)c(C2CCN([C@@H]3COC4(C3)CN(c3ncon3)C4)CC2)c1` [Example 6B, (S)-7-(4-(5-fluoro-2-(oxetan-3-yloxy)phenyl)piperidin-1-yl)-2-(1,2,4-oxadiazol-3-yl)-5-oxa-2-azaspiro[3.4]octane]: in assay [1], the Emax is 0% and the negative-log EC50 (pEC50) was under 4.60. Besides, in assay [2], the Emax is 79% and the pEC50 was 8.10.
